Test results: patent publication US20030130280A1, “Treatment of acute myeloid leukemia with indolinone compounds” (SUGEN, Inc., priority 2001, published 2003)

Key:
Wild-type FLT-3 = biological target: T1, Wild-type FLT-3 (Homo sapiens, UniProt P36888); test: FLT-3 phosphorylation by immunoprecipitation/Western in RS411 cells; format: cell-based; conditions: for Wild-type FLT-3 (inhibition of phosphorylation): RS411 cells, IP/Western; for Wild-type FLT-3 (inhibition of phosphorylation): key: +++: very strong inhibition; ++: inhibition; +/−: weak inhibition; −: no inhibition
T1 construct: host or cells: RS411 (RS4;11)
T1 sequence (P36888 27-993): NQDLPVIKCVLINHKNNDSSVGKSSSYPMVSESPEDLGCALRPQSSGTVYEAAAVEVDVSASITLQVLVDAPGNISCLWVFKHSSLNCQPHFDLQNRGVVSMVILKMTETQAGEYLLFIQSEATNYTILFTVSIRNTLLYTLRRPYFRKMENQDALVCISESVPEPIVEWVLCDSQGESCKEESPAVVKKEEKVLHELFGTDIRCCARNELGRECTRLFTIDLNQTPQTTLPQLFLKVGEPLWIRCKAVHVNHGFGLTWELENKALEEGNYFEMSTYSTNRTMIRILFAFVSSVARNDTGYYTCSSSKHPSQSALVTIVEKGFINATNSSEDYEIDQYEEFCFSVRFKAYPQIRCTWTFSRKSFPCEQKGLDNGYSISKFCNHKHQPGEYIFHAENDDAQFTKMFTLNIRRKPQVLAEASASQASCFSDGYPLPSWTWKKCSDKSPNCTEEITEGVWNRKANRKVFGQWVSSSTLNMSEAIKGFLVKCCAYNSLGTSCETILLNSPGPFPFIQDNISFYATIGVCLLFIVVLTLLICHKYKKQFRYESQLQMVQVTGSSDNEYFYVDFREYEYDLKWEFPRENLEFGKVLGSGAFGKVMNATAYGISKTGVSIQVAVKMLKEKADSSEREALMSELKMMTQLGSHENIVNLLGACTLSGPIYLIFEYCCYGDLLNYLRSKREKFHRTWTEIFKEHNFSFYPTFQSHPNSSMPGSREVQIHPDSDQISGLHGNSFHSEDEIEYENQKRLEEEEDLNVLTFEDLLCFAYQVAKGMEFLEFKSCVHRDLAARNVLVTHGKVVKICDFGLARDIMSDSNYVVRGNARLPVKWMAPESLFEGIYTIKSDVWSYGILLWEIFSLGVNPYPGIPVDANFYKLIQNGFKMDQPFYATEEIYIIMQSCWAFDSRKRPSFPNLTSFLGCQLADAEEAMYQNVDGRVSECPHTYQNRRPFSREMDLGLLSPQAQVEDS
Protocol: FLT-3 was immunoprecipitated from lysates with a commercially available antibody. Proteins were separated by SDS-polyacrylamide gel electrophoresis, transferred to membranes analyzed by Western blotting for phosphotyrosine and subsequently for total FLT-3 protein as control. […]
(§1) Immunoprecipitation and Western Blot (IP/W) analysis: Cells were lysed in lysis buffer (20 mM Tris, pH 7.5; 137 mM NaCl; 10% glycerol; 1% NP-40; 0.1% SDS; 2 mM EDTA) containing protease and phosphatase inhibitors (50 mM sodium fluoride, 1 mM sodium orthovanadate, 2 mM Pefabloc, […], […], […], 4 mM leupeptin, and 4 mM pepstatin A). Equivalent amounts of protein were separated by SDS-PAGE, then transferred to nitrocellulose membranes. For analysis of FLT3 phosphorylation, equivalent amounts of protein from each sample were immunoprecipitated overnight at 4*C. with an agarose-conjugated anti-FLT3 antibody (Santa Cruz Biotechnology, Santa Cruz, Calif.). Immune complexes were washed (150 mM NaCl, 1.5 mM MgCl2, 50 mM HEPES, pH 7.5, 10% glycerol, 0.1% Triton X-100, and 1 mM EGTA) and following SDS-PAGE, proteins were transferred to nitrocellulose membranes. Membranes were probed with an anti-phosphotyrosine antibody (Upstate, Lake Placid, N.Y. or Transduction Laboratories, Lexington, Ky.) and then stripped with Restore Western Blot Stripping Buffer (Pierce, Rockford, Ill.). Membranes were reprobed with an anti-FLT3 antibody (Santa Cruz Biotechnology). Stat5 antibodies for immunprecipitation and Western blot analysis were from Upstate Biotechnology and Transduction labs respectively.

Mutant FLT-3 (ITD) = biological target: T2, Mutant FLT-3 (ITD) (Homo sapiens, UniProt P36888, INS600HVDFREYEYD); test: FLT-3 phosphorylation by immunoprecipitation/Western in MV411 cells; format: cell-based; conditions: for Mutant FLT-3 (inhibition of phosphorylation): MV411 cells, IP/Western; for Mutant FLT-3 (inhibition of phosphorylation): key: +++: very strong inhibition; ++: inhibition; +/−: weak inhibition; −: no inhibition
T2 sequence (P36888 27-993 INS600HVDFREYEYD): T1 sequence (P36888 27-993)
Protocol: FLT-3 was immunoprecipitated from lysates with a commercially available antibody. Proteins were separated by SDS-polyacrylamide gel electrophoresis, transferred to membranes analyzed by Western blotting for phosphotyrosine and subsequently for total FLT-3 protein as control.
The comparative example is a known protein kinase inhibitor having the following formula: [drawing 18]
as §1

Row | SMILES | Wild-type FLT-3 (inhibition of phosphorylation) (Wild-type FLT-3) | Mutant FLT-3 (inhibition of phosphorylation) (Mutant FLT-3 (ITD)) | inhibition of wild-type FLT-3 phosphorylation (Wild-type FLT-3; in words) | inhibition of mutant FLT-3 phosphorylation (Mutant FLT-3 (ITD); in words)
1 | Cc1[nH]c(C=C2C(=O)Nc3ccc(F)cc32)c(C)c1C(=O)NCCN1CCCC1 [Compound 2, 5-(5-Fluoro-2-oxo-1,2-dihydro-indol-3-ylidenemethyl)-2,4-dimethyl-1H-pyrrole-3-carboxylic acid(2-pyrrolidin-1-yl-ethyl)-amide] | ++ | ++ |  | 
2 | Cc1cc(CCC(=O)O)c(C=C2C(=O)Nc3ccccc32)[nH]1 [Compound 10, 3-[5-methyl-2-(2-oxo-1,2-dihydro-indol-3-ylidenemethyl)-1H-pyrrol-3-yl]-propionic acid] | +/− | − |  | 
3 | Cc1[nH]c(/C=C2\C(=O)Nc3ccc(F)cc32)c(C)c1C(=O)N1CCC(N2CCOCC2)CC1 [Compound 9, 3-[3,5-dimethyl-4-(4-morpholin-4-yl-piperidine-1-carbonyl)-1H-pyrrol-2-methylene]-5-fluoro-1,3-dihydro-indol-2-one] | ++ |  |  | 
4 | Cc1[nH]c(C=C2C(=O)Nc3ccc(Cl)cc32)c(C)c1C(=O)NCC(O)CN1CCOCC1 (stereo not drawn) [Compound 7, 5-(5-Chloro-2-oxo-1,2-dihydro-indol-3-ylidenemethyl)-2,4-dimethyl-1H-pyrrole-3-carboxylic acid(2-hydroxy-3-morpholin-4-yl-propyl)-amide] | ++ |  |  | 
5 | Cc1[nH]c(C=C2C(=O)Nc3ccc(F)cc32)c(C)c1C(=O)NCCN1CCOCC1 [Compound 3, 5-(5-Fluoro-2-oxo-1,2-dihydro-indol-3-ylidenemethyl)-2,4-dimethyl-1H-pyrrole-3-carboxylic acid(2-morpholin-4-yl-ethyl)-amide] | +/− |  |  | 
6 | Cc1[nH]c(/C=C2\C(=O)Nc3ccccc32)c(C)c1CCC(=O)O [Comparative, reference compound] | − | − | no inhibition | no inhibition
7 | CCNCCNC(=O)c1c(C)[nH]c(C=C2C(=O)Nc3ccc(F)cc32)c1C [Compound 8, 5-(5-Fluoro-2-oxo-1,2-dihydro-indol-3-ylidenemethyl)-2,4-dimethyl-1H-pyrrole-3-carboxylic acid(2-ethylamino-ethyl)-amide] | ++ |  |  | 
